Results from the NIST ThermoML archive (doi:10.1016/j.jct.2012.10.017).
Numbers after ± are expanded uncertainties.

Settings: Liquid, Ebulliometric method (Recirculating still)

vapor or sublimation pressure (449.39 K)	vapor or sublimation pressure (428.65 K)	Compound
100.7 ± 0.6 kPa	–	Cc1ccc(C(C)C)cc1 [1-(1-methylethyl)-4-methylbenzene]
–	100.7 ± 1.1 kPa	CC1=CCC2CC1C2(C)C (configuration not stated) [2-pinene]
